{"source": "paper PMC7725824", "about": "“Fused isoselenazolium salts suppress breast cancer cell growth by dramatic increase in pyruvate-dependent mitochondrial ROS production” (Scientific Reports, 2020)", "key": {"[1]": {"test_system": "MCF-7", "test": "Cytotoxicity assay (MTT), MCF-7", "format": "cell-based, human", "details": "Homo sapiens, MCF7; breast cancer cell line; MTT, 48 h; mean ± S.D., 3 experiments; read-out: Cytotoxicity, IC50, MCF-7", "procedure": "(§1) MCF-7 (human breast adenocarcinoma, estrogen-positive) and 4T1 (mouse carcinoma), as breast cancer cell lines, and H9C2 (rat cardiomyoblasts), NIH 3T3 (mouse fibroblasts), HEKa (primary human epidermal keratinocytes), MDCK (Madin-Darby Canine Kidney) cells, and A7r5 (rat vascular smooth muscle cells), as normal cell lines, were obtained from the American Type Culture Collection [ATCC] collection for use in the current study. All cell lines were cultured in Dulbecco's modified Eagle's medium (DMEM) containing 10% fetal bovine serum (FBS) and 4 mM L-glutamine at 37 °C and 5% CO2.\n(§2) Cell viability was assessed by the addition of 3-(4,5-dimethylthiazol-2-yl)-2,5-diphenyltetrazolinium bromide (MTT). Briefly, cells were seeded (2–6 × 10^4 cells/ml) in 96-well plates and allowed to attach for 24 h. Solutions of test compounds were prepared and serially diluted to obtain the appropriate concentrations. The cells were treated with the test compounds at different concentrations (0.032–100 µM) and incubated for 48 h at 37 °C and 5% CO2. Then, the culture medium was removed, and medium containing 0.2 mg/ml MTT was added. After 3 h (37 °C, 5% CO2), the MTT-containing medium was removed, and 200 μl of dimethyl sulfoxide (DMSO) was immediately added to each sample. The absorbance was assessed at 540 nm using a Tecan multiplate reader Infinite 1000 (Austria). The half-maximal inhibitory concentration (IC50) of each compound was calculated using Graph Pad Prism 3.0."}, "[2]": {"test_system": "4T1", "test": "Cytotoxicity assay (MTT), 4T1", "format": "cell-based, mouse", "details": "Mus musculus, 4T1; breast cancer cell line; MTT, 48 h; mean ± S.D., 3 experiments; read-out: Cytotoxicity, IC50, 4T1", "procedure": "as §1, §2"}, "[3]": {"test": "Cytotoxicity assay (MTT), H9C2", "format": "cell-based, rat", "details": "rat, H9C2 cells (cardiomyoblasts); normal cell line; MTT, 48 h; mean ± S.D., 3 experiments", "procedure": "as §1, §2"}, "[4]": {"test": "Cytotoxicity assay (MTT), 3T3", "format": "cell-based, mouse", "details": "mouse, NIH 3T3 cells (fibroblasts), normal cell line, mean ± S.D., 3 experiments", "procedure": "as §1, §2"}, "[5]": {"test": "Cytotoxicity assay (MTT), HEKa", "format": "cell-based, human", "details": "human, HEKa cells (primary epidermal keratinocytes), normal cell line, mean ± S.D., 3 experiments", "procedure": "as §1, §2"}, "[6]": {"test": "Cytotoxicity assay (MTT), MDCK", "format": "cell-based, Canine", "details": "dog, MDCK cells, normal cell line, mean ± S.D., 3 experiments", "procedure": "as §1, §2"}, "[7]": {"test_system": "MCF-7 cells", "test": "NAD+/NADH assay kit measurement", "format": "cell-based, human", "details": "2 μM, 10 min, vs control", "procedure": "The NAD^+/NADH ratio in the MCF-7 cells exposed to the test compounds (2 μM) for 10 min was measured using an NAD^+/NADH assay kit (Abcam, ab65348) according to the manufacturer's instructions."}, "[8]": {"test_system": "DOPC liposomes", "test": "1H NMR interaction study with DOPC liposomes", "format": "binding", "details": "0.4 mM 6, 1.6 mM DOPC, 25 °C", "procedure": "Cardiolipin (CL) liposomes for NMR analysis were prepared by the thin-film method followed by sonication and extrusion. […] The obtained lipid thin film was dried in vacuo overnight. Then, the dry lipid film was rehydrated in D18 HEPES buffer (20 mM, pH 7.4, 10% D2O) and gently vortexed, and the samples were sonicated for 30 min in a bath-type sonicator. The obtained sample of liposomes was extruded 21 times through a 100-nm pore polycarbonate filter (Nucleopore Corp., CA). Similarly, liposomes from DOPC only were prepared.\nTo study the interactions of compound 6 with CL and DOPC liposomes, a stock solution of 6 (2 mM) in D18 HEPES buffer (20 mM, pH 7.4, 10% D2O) was added to CL/DOPC or DOPC liposome dispersions to reach 400:1200:400 µM CL/DOPC/6 solution or 1600:400 µM DOPC/6 solution followed by gentle vortexing for 30 s.\nNMR spectra were acquired on a 600‐MHz Bruker Avance NEO spectrometer equipped with a 5 mm QCI-F quadruple resonance pulsed‐field‐gradient cryoprobe. The temperature was calibrated against methanol and set to 25 °C. Chemical shifts were referenced to the water resonance at 4.77 ppm with respect to 4,4-dimethyl-4-silapentane-1-sulfonic acid (DSS). The samples contained […] 6 in 90% H2O and 10% D2O with and without DOPC or CL/DOPC liposomes. The NMR data were processed and analyzed using MestReNova software."}, "[9]": {"test_system": "DOPC liposomes", "test": "Isothermal titration calorimetry with DOPC liposomes", "format": "binding", "details": "25 °C, 200 µM total lipid", "procedure": "The obtained large multilamellar liposomes were sonicated in a bath-type sonicator (Cole Parmer Ultrasonic Cleaner 8891CPX (USA)) at room temperature for 30 min and then extruded (LiposoFast-Basic, Avestin) through a 100 nm polycarbonate filter 21 times. The quality of the resulting small unilamellar vesicles was determined by dynamic light scattering (DLS) (Zetasizer Nano ZSP, Malvern Panalytical Ltd., UK).\nThe experiments were carried out using an isothermal titration calorimeter (MicroCal iTC200, Malvern Panalytical Ltd., UK). To carry out the titration, the injection syringe was filled with a solution of compound 6 (100 µM), and the reaction cell was filled with liposome dispersion (200 µM of total lipid). The experiments were performed at 25 and 37 °C with a stirring speed of 750 rpm. […] The data consisted of a series of heat flows as a function of time, which were collected automatically and analyzed by Origin 7 software (OriginLab Corporation, Northampton, USA, www.originlab.com, 2002). The changes in enthalpy (ΔH) due to the interactions between 6 and the liposome dispersions were recorded, and then stoichiometry (N), the association constant (KA), the dissociation constant (KD), entropy (ΔS) and the Gibbs free energy (ΔG) were calculated. The obtained sigmoidal titration curves were evaluated assuming independent saturable binding sites in the outer vesicle interface. […]"}}}
{"smiles": "OC1(c2[se][n+]3ccsc3c2Br)CCCCC1", "note": "[Compound 6, 3-bromo-2-(1-hydroxycyclohexyl)[1,2]selenazolo[2,3-b]thiazolium chloride]", "values": [{"measurement": "IC50", "setting": "[1]", "result": "3.23 ± 0.03", "unit": "µM"}, {"measurement": "IC50", "setting": "[2]", "result": "1.7 ± 0.2", "unit": "µM"}, {"measurement": "IC50 at 48 h", "setting": "[3]", "result": "3.7 ± 0.2", "unit": "µM"}, {"measurement": "IC50 at 48 h", "setting": "[4]", "result": "7.4 ± 0.8", "unit": "µM"}, {"measurement": "IC50 at 48 h", "setting": "[5]", "result": "2.84 ± 0.08", "unit": "µM"}, {"measurement": "IC50 at 48 h", "setting": "[6]", "result": "6.58 ± 0.33", "unit": "µM"}, {"measurement": "decrease in NAD+ level", "setting": "[7]", "result": 25, "unit": "%"}, {"measurement": "decrease in NAD+/NADH ratio", "setting": "[7]", "result": "without affecting"}, {"measurement": "decrease in NADH level", "setting": "[7]", "result": "without affecting"}, {"measurement": "aromatic 1H NMR resonances in the presence of DOPC liposomes", "setting": "[8]", "result": "noticeably broadened"}, {"measurement": "ITC binding to DOPC liposomes", "setting": "[9]", "result": "no signs of binding"}]}
